Reference: patent publication US20230303712A1, “METHODS OF TREATING GLIOBLASTOMA” (Ramot at Tel-Aviv University Ltd., priority 2020, published 2023)
“Also recorded” adds a separate entry of the source.

Assays:
[1] = tested on: murine GB cells (GL261, iAGR53, PNp53, EGFRviii-shP16); assay: 3D spheroid invasion in Matrigel, murine GB cells co-cultured with murine microglia; assay type: cell-based
Description: Tumor spheroids. Tumor spheroids were prepared from mCherry/iRFP/GFP-labeled patient-derived, human U251 or murine GB cells (GL261, iAGR53, PNp53, EGFRviii-shP16), either alone or co-cultured with unlabeled primary human/murine microglia (4:1 ratio), using our modified hanging-drop method, as we previously described. For assessment of cell invasion, GB spheroids (4,000 cells/sphere) were embedded in Matrigel (Corning), seeded in a 96-well plate, and incubated with complete DMEM or complete DMEM supplemented with SELPi (0.5 µM). […] For FACS analysis, GB spheroids (8,000 cells/sphere) were embedded in Matrigel, seeded in a 12-well plate, and treated with complete DMEM, 0% serum microglia medium or microglia CM for 24-48 h. Cells were then recovered using Cell Recovery Solution (Corning) and further analyzed by FACS.

[2] = tested on: U251 tumors; assay: SELPi treatment in human U251 GB model; assay type: in vivo, SCID mice
Description: SELPi (0.8 mg/ml) was dissolved in DMSO 0.01%), polyethyleneglycol (93.2 mg/ml), Tween-80 (14.8 mg/ml), and DDW. Mice were treated intravenously (IV) twice a week with PBS, 16 mg/kg SELPi or vehicle (0.01% DMSO, 93.2 mg/ml polyethyleneglycol and 14.8 mg/ml Tween-80 in DDW). Tumor development was followed by monitoring the fluorescence intensity using the CRI Maestro™ imaging system.
Intravital imaging. The CRI Maestro™ non-invasive fluorescence imaging system was used to follow tumor progression in mice bearing mCherry- or iRFP- labeled U251 tumors. Mice were anesthetized by ketamine (150 mg/kg) and xylazine (12 mg/kg) injected IP, and were placed inside the imaging system. Multispectral image-cubes were used through 550-800 nm spectral range in 10 nm steps using excitation (575-605 nm) and emission (645 nm longpass) filter set. Mice autofluorescence and background signals were eliminated by spectral analysis and by applying a linear unmixing algorithm.

[3] = molecular target: T1, L-Selectin (Homo sapiens, UniProt P14151); details: cited from earlier work
T1 sequence (P14151 39-372): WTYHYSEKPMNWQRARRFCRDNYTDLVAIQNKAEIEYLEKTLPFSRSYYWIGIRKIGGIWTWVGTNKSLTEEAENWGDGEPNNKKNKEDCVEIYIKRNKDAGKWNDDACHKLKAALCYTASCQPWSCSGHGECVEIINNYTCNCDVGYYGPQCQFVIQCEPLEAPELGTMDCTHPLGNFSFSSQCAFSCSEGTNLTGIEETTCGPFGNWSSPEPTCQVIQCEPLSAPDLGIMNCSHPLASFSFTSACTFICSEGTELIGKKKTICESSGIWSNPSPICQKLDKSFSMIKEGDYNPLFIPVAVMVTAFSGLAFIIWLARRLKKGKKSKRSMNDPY

[4] = molecular target: T2, E-Selectin (Homo sapiens, UniProt P16581); details: cited from earlier work
T2 sequence (P16581 22-610): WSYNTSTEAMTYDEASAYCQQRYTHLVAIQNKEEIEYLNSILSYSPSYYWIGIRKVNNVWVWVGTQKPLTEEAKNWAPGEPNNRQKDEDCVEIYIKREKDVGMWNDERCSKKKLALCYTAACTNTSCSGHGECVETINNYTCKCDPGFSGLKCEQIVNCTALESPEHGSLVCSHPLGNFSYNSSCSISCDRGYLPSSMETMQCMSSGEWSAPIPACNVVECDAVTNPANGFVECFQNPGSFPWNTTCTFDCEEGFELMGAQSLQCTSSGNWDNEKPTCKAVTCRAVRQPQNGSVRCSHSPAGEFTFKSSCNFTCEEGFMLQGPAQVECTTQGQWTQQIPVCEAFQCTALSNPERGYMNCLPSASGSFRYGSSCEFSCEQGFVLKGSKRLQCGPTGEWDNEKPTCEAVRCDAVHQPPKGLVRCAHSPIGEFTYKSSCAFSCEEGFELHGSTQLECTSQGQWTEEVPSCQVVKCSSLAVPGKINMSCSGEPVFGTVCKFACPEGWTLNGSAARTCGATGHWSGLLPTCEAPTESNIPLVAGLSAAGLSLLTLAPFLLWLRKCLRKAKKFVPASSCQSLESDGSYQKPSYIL

In the case of COc1ccc(C2CC(c3c(O)cc(C)oc3=O)=NCCS2)c(OC)c1 (stereo not drawn) [SELPi, 3-[7-(2,4-Dimethoxyphenyl)-2,3,6,7-tetrahydro-1,4-thiazepin-5-yl]-4-hydroxy-6-methyl-2H-pyran-2-one], the “invasion of GB spheroids co-cultured with murine microglia” value ([1]; mesenchymal, proneural and classical lenti-induced murine GB subtypes) is reported as “significantly reduced the invasion”, the “3D spheroid invasion, murine GL261” value ([1]; murine GL261 GB model) is reported as “effect of SELPi on GB spheroids was observed” and the “blood vessel density (CD31)” value ([2]; U251 tumors) is reported as “reduction”. The “invasion of GB cells (H&E)” value ([2]; U251 tumors) was “reduced”, the “microglia activation (Iba1)” value ([2]; U251 tumors) was “reduction” and the “proliferation of GB cells (Ki-67)” value ([2]; U251 tumors) was “reduced”. For the same compound, the “tumor growth (fluorescence signal, CRI-Maestro)” value ([2]; iRFP-labeled U251, 16 mg/kg SELPi IV twice a week) was “reduced the fluorescence signal; also recorded: delayed tumor growth”, the “inhibiting effect on L-Selectin” value [3] was “no inhibiting effects” and the “inhibiting effect on E-Selectin” value [4] was “no inhibiting effects”.
